By IC90 is commonly meant the concentration at which the effect reaches the 90% level. Broadly, the IC50 is the concentration that gives 50% inhibition. Usually half-life stands for the time in which the quantity being followed falls by half. As a reminder, the IC95 is the point of the concentration-response curve where the effect stands at 95%. For orientation: bioavailability means the share of a dose that reaches the circulation, judged against a reference dose that is usually intravenous.

Structures are written as SMILES.

In data set [1] the test system is Human immunodeficiency virus 1. Put plainly: In vitro inhibition of HIV-1 BAL strain infection of HeLa cell line. In kind it is functional. As to conditions: Human immunodeficiency virus 1, HeLa.
Data set [2] addresses C-C chemokine receptor type 5 (Homo sapiens, UniProt P51681). Briefly: In vitro binding affinity at CCR5 receptor in the presence of [125I]-MIP-1 alpha.
Data set [3] in a line: Half-life in rat. The data set is classed as ADME, organism-based. As to conditions: in vivo.
Data set [4] in a line: Inhibitory concentration was determined against peripheral blood mononuclear cells (PBMC). The data set is classed as functional.
Data set [5] can be described thus: Bioavailability in Rhesus monkey. In kind it is ADME, organism-based, Macaca mulatta. As to conditions: in vivo.
Data set [6] can be described thus: Plasma clearance in rat. In kind it is ADME, organism-based. As to conditions: read-out: Clp.
The nature of data set [7]: Volume of distribution in steady state was determined in rhesus monkey. The data set is classed as ADME, organism-based. As to conditions: cercopithecidae, in vivo; read-out: Vdss.
Data set [8] in a line: Bioavailability in rat. As to conditions: in vivo. In kind it is ADME, organism-based.
Data set [9] is described as follows: Half-life in rhesus monkey. The data set is classed as ADME. As to conditions: cercopithecidae, in vivo.
A short description of data set [10]: Plasma clearance in dog. As to conditions: read-out: Clp. In kind it is ADME, organism-based, Canis lupus familiaris.
Data set [11] is described as follows: Volume of distribution in steady state was determined in dog. As to conditions: in vivo, read-out: Vdss. The data set is classed as ADME, organism-based, Canis lupus familiaris.
Data set [12] in a line: Bioavailability in dog. As to conditions: in vivo. In kind it is ADME, organism-based, Canis lupus familiaris.
Data set [13] can be described thus: Plasma clearance in rhesus monkey. The data set is classed as ADME, organism-based. As to conditions: cercopithecidae, read-out: Clp.
Data set [14] in a line: Half-life in dog. In kind it is ADME, organism-based, Canis lupus familiaris. As to conditions: in vivo.
Data set [15] concerns the target Voltage-gated L-type calcium channel (Homo sapiens, UniProt Q13936+Q13698+Q01668+O60840). Briefly: Inhibition of L-type Ca+2 channels. In kind it is protein assay.
Data set [16] is described as follows: Volume of distribution in steady state was determined in rat. As to conditions: in vivo, read-out: Vdss. In kind it is ADME, organism-based.
The species named for data set [17] is Macaca mulatta. Put plainly: Plasma clearance in rhesus monkey. As to conditions: read-out: Clp.

Chain of C-C chemokine receptor type 5 (P51681 whole entry): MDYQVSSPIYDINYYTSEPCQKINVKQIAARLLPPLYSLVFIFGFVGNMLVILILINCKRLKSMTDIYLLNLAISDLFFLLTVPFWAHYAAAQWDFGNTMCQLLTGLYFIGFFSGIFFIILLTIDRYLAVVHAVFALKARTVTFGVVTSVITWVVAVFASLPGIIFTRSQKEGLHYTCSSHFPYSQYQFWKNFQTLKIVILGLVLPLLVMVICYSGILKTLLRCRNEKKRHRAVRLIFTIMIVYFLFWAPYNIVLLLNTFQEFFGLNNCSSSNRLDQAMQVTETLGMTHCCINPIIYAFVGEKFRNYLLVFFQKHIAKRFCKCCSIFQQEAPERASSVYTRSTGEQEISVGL

`O=C(O)[C@H](C1CCCCC1)N1C[C@H](CN2CCC(O)(CCCc3ccccc3)CC2)[C@@H](c2ccccc2)C1` had an IC90 in data set [1] of over 300 nM. For the same compound, the IC50 in [2] amounted to 5 nM.

In the case of `COC(=O)[C@H](C1CCCCC1)N1C[C@H](CN2CCC(O)(CCCc3ccccc3)CC2)[C@@H](c2ccccc2)C1`, the half-maximal inhibitory concentration (IC50) in data set [2] is 4 nM.

In data set [1], `O=C(OCc1ccccc1)[C@@H](C1CCCCC1)N1C[C@H](CN2CCC(O)(CCCc3ccccc3)CC2)[C@@H](c2ccccc2)C1` showed a concentration for an effect of 90% (IC90) of over 300 nM. Further, the IC50 in data set [2] worked out at 3.6 nM.

On to `O=C(O)[C@@H](c1ccccc1)N1C[C@H](CN2CCC(O)(CCCc3ccccc3)CC2)[C@@H](c2ccccc2)C1`, for which the IC90 in [1] stood at 33 nM. Besides, the IC50 in data set [2] worked out at 0.8 nM.

Regarding `O=C(O)CN1C[C@H](CN2CCC(O)(CCCc3ccccc3)CC2)[C@@H](c2ccccc2)C1`, in data set [1], the IC90 is 3000 nM. The IC50 in data set [2] is 6 nM.

As to `C[C@H](C(=O)O)N1C[C@H](CN2CCC(O)(CCCc3ccccc3)CC2)[C@@H](c2ccccc2)C1`, in data set [1], the 90% effect level (IC90) was put at 333 nM. The IC50 in data set [2] worked out at 3 nM.

As for `O=C(O)[C@@H](C1CCCCC1)N1C[C@H](CN2CCC(CCCc3ccccc3)CC2)[C@@H](c2ccccc2)C1`, the half-life in [3] is 2.1 h; in data set [9] it was 6.3 h; in data set [14], 9.2 h. The compound also displayed an IC95 in data set [4] of 77 nM. In addition, the bioavailability turned out to be 10% in data set [5], 26% in [8] and 43% in [12]. Moreover, the figures for the clearance in data set [6], in [10] and in data set [13] were 1.06 L/h/kg, 0.654 L/h/kg and 1.03 L/h/kg, respectively. Besides, the Vd in data set [7] came to 6.2 L/kg; in [11] it was 3.1 L/kg; in data set [16], 3.3 L/kg. It took 11 nM to reach the 90% level in data set [1] (IC90). Moreover, the IC50 was 5300 nM in data set [15] and 0.1 nM in data set [2].

`OC[C@@H](C1CCCCC1)N1C[C@H](CN2CCC(O)(CCCc3ccccc3)CC2)[C@@H](c2ccccc2)C1` gave an IC90 in data set [1] of 300 nM. Besides, the IC50 in [2] amounted to 1 nM.

As to `O=C(O)[C@@H](C1CCCCC1)N1C[C@H](CN2CCC(c3ccc(F)cc3)CC2)[C@@H](c2ccccc2)C1`, the 90% effect level in [1] (IC90) was put at 0.4 nM. For the same compound, the IC50 in data set [2] turned out to be 4 nM.

For `OC[C@H](C1CCCCC1)N1C[C@H](CN2CCC(O)(CCCc3ccccc3)CC2)[C@@H](c2ccccc2)C1`, the IC50 in data set [2] was found to be 1 nM.

`O=C(O)[C@@H](CC1CCC1)N1C[C@H](CN2CCC(CCCc3ccccc3)CC2)[C@@H](c2ccccc2)C1` had a half-life in [3] of 3 h. The compound further returned an IC95 in data set [4] of under 8 nM. Further, the clearance in data set [6] was 1.59 L/h/kg. In data set [8], this compound registered a bioavailability of 29%. This compound registered an IC90 in [1] of 1.2 nM. The values for the IC50 in [15] and in [2] were 2700 nM and 0.1 nM, respectively. For the same compound, the Vd in [16] is 5.9 L/kg.

The compound `O=C(O)[C@@H](CC1CC1)N1C[C@H](CN2CCC(CCCc3ccccc3)CC2)[C@@H](c2ccccc2)C1` had a concentration for an effect of 90% (IC90) in data set [1] of 11 nM. For the same compound, the IC50 in [2] turned out to be 0.1 nM.

`CC(C)[C@H](C(=O)O)N1C[C@H](CN2CCC(O)(CCCc3ccccc3)CC2)[C@@H](c2ccccc2)C1` returned an IC90 in data set [1] of 333 nM. Besides, in data set [2], the IC50 turned out to be 2 nM.

On to `CC(C)[C@H](C(=O)O)N1C[C@H](CN2CCC(CCCc3ccccc3)CC2)[C@@H](c2ccccc2)C1`, for which the IC90 in data set [1] is 111 nM. Also, the IC50 in [2] stood at 0.7 nM.

In turn, `O=C(O)[C@@H](C1CC1)N1C[C@H](CN2CCC(CCCc3ccccc3)CC2)[C@@H](c2ccccc2)C1` yielded an IC90 in data set [1] of 300 nM. Besides, the IC50 in data set [2] came out at 3 nM.

In data set [3], `OC1(CCCc2ccc(-c3nnn[nH]3)cc2)CCN(C[C@H]2CN(CC3CCCCC3)C[C@@H]2c2ccccc2)CC1` showed a half-life of 0.3 h. In data set [8], this compound returned a bioavailability of 0%. Moreover, in data set [1], the 90% effect level (IC90) was put at 4 nM. In addition, in [15], the IC50 was over 10000 nM.

In data set [1], `O=C(O)[C@@H](C1CCC1)N1C[C@H](CN2CCC(CCCc3ccccc3)CC2)[C@@H](c2ccccc2)C1` had an IC90 of 11 nM. For the same compound, the IC50 in [2] worked out at 0.1 nM.

The compound `O=C(OCc1ccccc1)[C@H](C1CCCCC1)N1C[C@H](CN2CCC(O)(CCCc3ccccc3)CC2)[C@@H](c2ccccc2)C1` displayed an IC90 in [1] of over 300 nM. In addition, in data set [2], the IC50 stood at 24 nM.

In the case of `O=C(O)[C@@H](C1CCCCC1)N1C[C@H](CN2CCC(O)(CCCc3ccccc3)CC2)[C@@H](c2ccccc2)C1`, in [3], the half-life was 1.8 h. This compound came in with an IC95 in data set [4] of 187 nM. In data set [6], the clearance came to 7.68 L/h/kg. In data set [8], the bioavailability was 0%. In data set [1], this compound registered a concentration for an effect of 90% (IC90) of 11 nM. In addition, the IC50 in data set [2] is 0.5 nM. For the same compound, the Vd in data set [16] was found to be 15 L/kg.

As for `CC(C)[C@H](C(=O)O)N1C[C@H](CN2CCC(c3ccc(F)cc3)CC2)[C@@H](c2ccccc2)C1`, the figures for the half-life in data set [3], in data set [9] and in [14] were 1.9 h, 7.8 h and 6.4 h, respectively. Besides, the IC95 in data set [4] is over 3000 nM. Moreover, the bioavailability in data set [5] came to 84%; in data set [8], 50%; in data set [12], 34%. Also, the clearance in data set [17] was 0.876 L/h/kg; in [6] it was 4.1 L/h/kg; in [10], 0.786 L/h/kg. The Vd in data set [7] was 4.2 L/kg; in data set [11], 8.6 L/kg; in data set [16], 8.4 L/kg. For the same compound, in [1], the IC90 was over 100 nM. Moreover, the values for the 50% inhibitory concentration (IC50) in data set [15] and in data set [2] were over 10000 nM and 36 nM, respectively.

Take `COC(=O)[C@@H](C1CCCCC1)N1C[C@H](CN2CCC(O)(CCCc3ccccc3)CC2)[C@@H](c2ccccc2)C1`: the IC50 in [2] was found to be 1 nM.

In data set [1], `O=C(O)[C@@H](C1CCCC1)N1C[C@H](CN2CCC(CCCc3ccccc3)CC2)[C@@H](c2ccccc2)C1` displayed an IC90 of 11 nM. The IC50 in data set [2] came to 0.2 nM.

The values above are taken from ChEMBL document CHEMBL1134920, “1,3,4-Trisubstituted pyrrolidine CCR5 receptor antagonists. Part 4: synthesis of N-1 acidic functionality affording analogues with enhanced antiviral activity against HIV” (Bioorg Med Chem Lett, 2002).
